Data reported in US20250161338A1, “Compounds for Anti-aging Intervention” (AGENCY FOR SCIENCE, TECHNOLOGY AND RESEARCH, priority 2022, published 2025).
Structures can show the parent of a compound that is named as a salt.

Tests used:
[1] = tested on: prototrophic yeast strain (CEN.PK113-7D); assay: Propidium iodide fluorescence-based CLS method in yeast (incl. high-throughput screening); assay type: cell-based, Saccharomyces cerevisiae; settings: concentration tested 100 μM; for Yeast CLS increase: Yes/No call of the screen; for PI intensity: solvent DMSO or water, chronological age point Day 7 (72 h growth = Day 1), lower = more survival;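 as to PI intensity: untreated reference is eight DMSO and water control wells per plate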
Description: Yeast strain was recovered from frozen glycerol stock at 30° C. on YPD agar medium. Yeast was left to propagate in SD medium overnight at 30° C. with shaking at 220 revolutions per minute (rpm). Cells propagated overnight were diluted to a starting optical density at 600 nm (OD600) of approximately 0.2 in fresh SD medium to begin the chronological lifespan (CLS) experiments.
(§1) CLS experiments were performed in 96-well plates with 200 μL yeast culture. Cellular inoculums were transferred into 96-well plates containing serially double-diluted concentrations (0 to 10 nM) of rapamycin. Cellular inoculum was transferred into 96-well plates containing serially double-diluted concentrations (0 to 8 mM) of 2,5-anhydro-D-mannitol, D-fructose, D-mannitol, D-maltose, and D-sorbitol in SD medium. Cells were incubated at 30° C., and the growth was measured at different time points. […] Cell survival was quantified at various age time points by three different approaches: (i) PI fluorescence-based method, (ii) outgrowth in YPD liquid medium, and (iii) spotting assay (FIG. 1).
Yeast cells (40 μL) from different age time points were transferred into a second 96-well plate (different to the 96-well plate in which the CLS analysis as outlined above was performed). Cells were washed and incubated in 100 μL 1×phosphate buffered saline (PBS) with propidium iodide (PI) (5 μg/mL) for 15 minutes in the dark. Positive and negative control samples were included for quantitative analysis. Positive control (cells boiled at 100° C. for 15 minutes) was PI-stained and processed in the same 96-well plate. Samples without PI-stained cells served as the negative control. After incubation, cells were washed and resuspended in 100 μL PBS. The fluorescence reading of the samples (excitation and emission wavelengths at 535 nm and 617 nm, respectively) and OD600 were measured with a microplate reader (BioTek, Winooski, Vermont, United States). The fluorescence intensity of each sample was normalized with OD600. The background fluorescence signal of the unstained negative sample was subtracted from the normalized fluorescence intensity of each sample. The obtained fluorescence intensity of the positive control (boiled dead cells) was considered 0% cell survival. Cell death was validated by allowing the boiled dead cells to grow in medium. Cell survival at different age time points of samples were calculated by normalizing the fluorescence intensity with positive control sample (boiled cells).
High-throughput screening of various chemicals was tested using the same protocol for the propidium iodide fluorescence-based method as described above. The prototrophic yeast strain (CEN.PK113-7D) was grown in the synthetic defined medium with different chemical reagents at their respective single testing concentration (Table 1) in addition to eight replicates of DMSO and water controls in 96-well plates at 30° C.

[2] = tested on: prototrophic yeast strain (CEN.PK113-7D); assay: Yeast outgrowth in YPD liquid medium (CLS of aged cells); assay type: cell-based, Saccharomyces cerevisiae; settings: concentration tested 100 μM; OD600 nm after 24 h in YPD at 30° C.; age point day 14
Description: as §1
Outgrowth (OD600) of aged cells was measured by the microplate reader. Quantification of cell survival for each age point was determined as relative to Day 1 (considered 100% cell survival). This quantification was performed by using the formula,
[formula] • where OutgrowthDay n refers to the OD600 nm absorbance reading recorded on a specific day, OutgrowthDay 1 refers to the OD600 nm absorbance reading recorded on the first day where 100% cell survival is assumed.
The CLS of the aged cells was further determined by the yeast outgrowth in YPD liquid medium method as described above. […] At chronological age point day 14, 3-μL of culture were transferred to a second 96-well plate containing 200 μL YPD medium.

Structure (SMILES)	Yeast CLS increase [1]	PI intensity [1]	Outgrowth [2]
O=C(O)c1ccc2c(c1)C(=O)c1ccccc1C2=O [Anthraquinone-2-carboxylic acid]	No	96,099.2	0.1
OCC1=C[C@@H](O)[C@@H]2C=CO[C@@H](O[C@@H]3O[C@H](CO)[C@@H](O)[C@H](O)[C@H]3O)[C@H]12 [Aucubin]	No	58,414.0	0.1
NC(=O)[C@@H]1CC[C@@H]2CN1C(=O)N2OS(=O)(=O)O [Avibactam (sodium), reference compound]	No	73,562.3	0.1
O=c1c(O[C@@H]2O[C@H](CO)[C@@H](O)[C@H](O)[C@H]2O[C@@H]2O[C@H](CO)[C@@H](O)[C@H](O)[C@H]2O)c(-c2ccc(O)c(O)c2)oc2cc(O)cc(O)c12 [Baimaside]	No	61,895.7	0.2
CC(=O)OCc1ccccc1 [Benzyl acetate]	No	74,321.9	0.1
C[C@@H](O)[C@H]1C(=O)N2C(C(=O)[O-])=C(SC3Cn4cnc[n+]4C3)[C@H](C)[C@H]12 (stereo partly drawn) [Biapenem, reference compound]	No	71,409.3	0.1
OC(CCN1CCCCC1)(c1ccccc1)C1CC2C=CC1C2 (stereo not drawn) [Biperiden (Hydrochloride), reference compound]	No	67,178.1	0.2
O=[N+]([O-])C(Br)(CO)CO [Bronopol]	No	79,284.9	0.1
C=C1CC[C@H](O)C/C1=C/C=C1\CCC[C@]2(C)[C@@H]([C@H](C)CCCC(C)(C)O)CC[C@@H]12 [Calcifediol, reference compound]	No	60,747.4	0.2
CSCCNc1nc(SCCC(F)(F)F)nc2c1ncn2[C@@H]1O[C@H](COP(=O)([O-])OP(=O)([O-])C(Cl)(Cl)P(=O)([O-])[O-])[C@@H](O)[C@H]1O.[Na+].[Na+].[Na+].[Na+] [Cangrelor (tetrasodium), reference compound]	No	83,173.6	0.1
C[C@]12CCC(=O)C=C1C=C[C@@H]1[C@@H]2CC[C@@]2(C)[C@H]1CC[C@@]21CCC(=O)O1 [Canrenone, reference compound]	No	64,295.2	0.1
CC1=C(C(=O)O)N2C(=O)[C@@H](NC(=O)[C@H](N)c3ccc(O)cc3)[C@H]2SC1 [Cefadroxil, reference compound]	No	70,326.1	0.1
CO/N=C(\C(=O)N[C@@H]1C(=O)N2C(C(=O)O)=C(Cn3ccc(=N)n3CCO)CS[C@H]12)c1csc(N)n1.O=S(=O)(O)O [Cefoselis (sulfate), reference compound]	No	70,425.6	0.1
COCc1c(C(C)C)nc(C(C)C)c(/C=C/[C@@H](O)C[C@@H](O)CC(=O)[O-])c1-c1ccc(F)cc1.[Na+] [Cerivastatin (sodium), reference compound]	No	64,250.5	0.1
O=C(/C=C/c1ccc(O)c(O)c1)O[C@@H]1C[C@](O)(C(=O)O)C[C@@H](O)[C@H]1O [Chlorogenic acid]	No	66,593.5	0.1
CC1(C)C[C@@H]1C(=O)N/C(=C\CCCCSC[C@H](N)C(=O)O)C(=O)O [Cilastatin, reference compound]	No	55,728.9	0.1
O=C(O)C=Cc1ccccc1 [Cinnamic acid]	No	60,256.3	0.1
COc1cc2oc(-c3ccc(O)cc3)cc(=O)c2c(O)c1OC [Cirsimaritin]	No	85,017.1	0.1
O=C(/C=C/c1ccc(O)c(O)c1)O[C@H]1[C@H](O)C[C@](O)(C(=O)O)C[C@H]1O [Cryptochlorogenic acid]	No	65,040.0	0.1
OC[C@H]1O[C@@H](Oc2cc3c(O)cc(O)cc3[o+]c2-c2ccc(O)c(O)c2)[C@H](O)[C@@H](O)[C@H]1O.[Cl-] [Cyanidin-3-O-galactoside (chloride)]	No	63,761.1	0.1
OC[C@H]1O[C@@H](O[C@H]2[C@H](O)[C@@H](O)[C@H](O)O[C@@H]2CO)[C@H](O)[C@@H](O)[C@@H]1O [D-(+)-Cellobiose]	No	69,857.4	0.1
O=C[C@H](O)[C@@H](O)[C@H](O)[C@H](O)C(=O)O [D-Glucuronic acid]	No	48,839.6	0.1
C[C@@H]1CC[C@@]2(OC1)O[C@H]1C[C@H]3[C@@H]4CC=C5C[C@@H](O[C@@H]6O[C@H](CO)[C@@H](O[C@@H]7O[C@H](CO)[C@@H](O)[C@H](O)[C@H]7O)[C@H](O)[C@H]6O[C@@H]6O[C@@H](C)[C@H](O)[C@@H](O)[C@H]6O)CC[C@]5(C)[C@H]4CC[C@]3(C)[C@H]1[C@@H]2C [Deltonin]	No	62,357.6	0.1
O=C(O)Cc1ccccc1Nc1c(Cl)cccc1Cl [Diclofenac (Sodium), reference compound]	No	79,704.3	0.2
CC(=O)OCC(=O)[C@@]1(OC(C)=O)[C@@H](C)C[C@H]2[C@@H]3C[C@H](F)C4=CC(=O)C=C[C@]4(C)[C@@]3(F)[C@@H](O)C[C@@]21C [Diflorasone, reference compound]	No	71,051.3	0.1
COS(=O)(=O)[O-].C[N+]1(C)CCC(=C(c2ccccc2)c2ccccc2)CC1 [Diphenmanil (methylsulfate), reference compound]	No	78,623.4	0.1
CC1(C)[C@@H](O[C@H]2O[C@H](C(=O)[O-])[C@@H](O)[C@H](O)[C@H]2O[C@@H]2O[C@H](C(=O)[O-])[C@@H](O)[C@H](O)[C@H]2O)CC[C@]2(C)[C@H]3C(=O)C=C4[C@@H]5C[C@@](C)(C(=O)O)CC[C@]5(C)CC[C@@]4(C)[C@]3(C)CC[C@@H]12.[K+].[K+] [Dipotassium glycyrrhizinate]	No	68,519.8	0.1
C[C@@H](O)[C@H]1C(=O)N2C(C(=O)O)=C(S[C@@H]3CN[C@H](CNS(N)(=O)=O)C3)[C@H](C)[C@H]12 [Doripenem (monohydrate), reference compound]	No	69,608.7	0.1
CC[C@H]1CN2CCc3cc(OC)c(OC)cc3[C@@H]2C[C@@H]1C[C@H]1NCCc2cc(OC)c(OC)cc21 [Emetine (dihydrochloride hydrate), reference compound]	No	75,341.5	0.1
